In ChEMBL document CHEMBL3861944 (Medchemcomm, 2016):

Assay: Antioxidant activity assessed as DPPH free radical scavenging activity incubated for 30 mins in dark
Assay type: functional

IC50: 79.3 µM
Structure (SMILES): O=C1O[C@H]([C@@H](O)CO)C(O)=C1O [ASCORBIC ACID]
